# In patent US9518018B2, “3-alkoxy, thioalkyl and amino-4-amino-6-(substituted)picolinates and their use as herbicides” (Dow AgroSciences LLC, priority 2011, dated 2016):
# Tested on: desired test plant species
# Assay: Foliar-applied postemergence herbicidal activity in direct seeded rice (Table 6)
# Type: in vivo
# Details: 21 DAA
# From the text: Seeds or nutlets of the desired test plant species were planted in a soil matrix prepared by mixing a loam soil (43 percent silt, 19 percent clay, and 38 percent sand, with a pH of about 8.1 and an organic matter content of about 1.5 percent) and river sand in an 80 to 20 ratio. The soil matrix was contained in plastic pots with a surface area of 139.7 cm^2. When required to ensure good germination and healthy plants, a fungicide treatment and/or other chemical or physical treatment was applied. The plants were grown for 10-17 d in a greenhouse with an approximate 14-h photoperiod which was maintained at about 29° C. during the day and 26° C. during the night. Nutrients and water were added on a regular basis and supplemental lighting was provided with overhead metal halide 1000-Watt lamps as necessary. The plants were employed for testing when they reached the second or third true leaf stage. Treatments consisted of compounds 45, 34, and 66. Weighed amounts of technical compounds were placed in individual 25 mL glass vials and dissolved in 8 mL of 97:3 v/v acetone-DMSO to obtain stock solutions. […] The spray application solutions were prepared by removing 4 mL of the stock solution and diluting with 4 mL of 97:3 v/v acetone-DMSO and continued serial dilution to obtain 1⁄2×, 1⁄4×, 1⁄8×, and 1/16× rates of the high rate. Spray solutions were diluted to the appropriate final concentrations with the addition of 8 mL of an aqueous mixture of 1.875% (v/v) Agri-dex crop oil concentrate. The final 12-mL spray solutions each contained 1.25% (v/v) Agri-dex crop oil concentrate, 32.3% acetone, and 1.0% DMSO. Compound requirements are based upon a 12 mL application volume at a rate of 187 L/ha. Spray solutions were applied to the plant material with an overhead Mandel track sprayer equipped with […] nozzles calibrated to deliver 187 L/ha over an application area of 0.503 square meters (m^2) at a spray height of 18 inches ([…]) above average plant canopy height. Control plants were sprayed in the same manner with the solvent blank. The treated plants and control plants were placed in a greenhouse as described above and watered by sub-irrigation to prevent wash-off of the test compounds. After approximately 3 weeks, the condition of the test plants, compared with that of the untreated plants, was determined visually and scored on a scale of 0 to 100 percent where 0 corresponds to no injury and 100 corresponds to complete kill. By applying the well-accepted probit analysis as described by J. Berkson in Journal of the […], 48, 565 (1953) and by D. Finney in “Probit Analysis” Cambridge University Press (1952) or by plotting the mean data and fitting a logarithmic curve to the portion of the data where there was a dose response using Microsoft Excel®, the above data can be used to calculate GR50 and GR90 values, which are defined as growth reduction factors that correspond to the effective dose of herbicide required to kill or control 50 percent or 90 percent, respectively, of a target plant.
compound,measurement,setting,value
"COc1c(C(=O)O)nc(-c2ccc(Cl)c(OC)c2F)c(F)c1N [Compound 45, 4-amino-6-(4-chloro-2-fluoro-3-methoxyphenyl)-5-fluoro-3-methoxypicolinic acid]",Mean Visual Injury (%)-21 Days After Application ECHCO,"ECHCO (Echinochloa colonum, junglerice), 4.38 g ae/ha",80%
same,Mean Visual Injury (%)-21 Days After Application ECHCO,"ECHCO (Echinochloa colonum, junglerice), 8.75 g ae/ha",88%
same,Mean Visual Injury (%)-21 Days After Application ECHCO,"ECHCO (Echinochloa colonum, junglerice), 17.5 g ae/ha",95%
same,Mean Visual Injury (%)-21 Days After Application ECHCO,"ECHCO (Echinochloa colonum, junglerice), 35 g ae/ha",98%
same,Mean Visual Injury (%)-21 Days After Application ECHCO,"ECHCO (Echinochloa colonum, junglerice), 70 g ae/ha",100%
same,GR50 ECHCO,"ECHCO (Echinochloa colonum, junglerice), dose to kill or control 50 percent",<4.38 g ae/ha
same,GR90 ECHCO,"ECHCO (Echinochloa colonum, junglerice), dose to kill or control 90 percent",12.9 g ae/ha
same,Mean Visual Injury (%)-21 Days After Application LEFCH,"LEFCH (Leptochloa chinensis, Chinese sprangletop), 4.38 g ae/ha",3%
same,Mean Visual Injury (%)-21 Days After Application LEFCH,"LEFCH (Leptochloa chinensis, Chinese sprangletop), 8.75 g ae/ha",0%
same,Mean Visual Injury (%)-21 Days After Application LEFCH,"LEFCH (Leptochloa chinensis, Chinese sprangletop), 17.5 g ae/ha",20%
same,Mean Visual Injury (%)-21 Days After Application LEFCH,"LEFCH (Leptochloa chinensis, Chinese sprangletop), 35 g ae/ha",42%
same,Mean Visual Injury (%)-21 Days After Application LEFCH,"LEFCH (Leptochloa chinensis, Chinese sprangletop), 70 g ae/ha",60%
same,GR50 LEFCH,"LEFCH (Leptochloa chinensis, Chinese sprangletop), dose to kill or control 50 percent",53.5 g ae/ha
same,GR90 LEFCH,"LEFCH (Leptochloa chinensis, Chinese sprangletop), dose to kill or control 90 percent",>70 g ae/ha
same,Mean Visual Injury (%)-21 Days After Application ORYSA ‘Clearfield 171’,"ORYSA (Oryza sativa ‘Clearfield 171’, rice), 4.38 g ae/ha",0%
same,Mean Visual Injury (%)-21 Days After Application ORYSA ‘Clearfield 171’,"ORYSA (Oryza sativa ‘Clearfield 171’, rice), 8.75 g ae/ha",12%
same,Mean Visual Injury (%)-21 Days After Application ORYSA ‘Clearfield 171’,"ORYSA (Oryza sativa ‘Clearfield 171’, rice), 17.5 g ae/ha",15%
same,Mean Visual Injury (%)-21 Days After Application ORYSA ‘Clearfield 171’,"ORYSA (Oryza sativa ‘Clearfield 171’, rice), 35 g ae/ha",35%
same,Mean Visual Injury (%)-21 Days After Application ORYSA ‘Clearfield 171’,"ORYSA (Oryza sativa ‘Clearfield 171’, rice), 70 g ae/ha",47%
same,GR50 ORYSA ‘Clearfield 171’,"ORYSA (Oryza sativa ‘Clearfield 171’, rice), dose to kill or control 50 percent",>70 g ae/ha
same,GR90 ORYSA ‘Clearfield 171’,"ORYSA (Oryza sativa ‘Clearfield 171’, rice), dose to kill or control 90 percent",>70 g ae/ha
same,Mean Visual Injury (%)-21 Days After Application ORYSA ‘Wells’,"ORYSA (Oryza sativa ‘Wells’, rice), 4.38 g ae/ha",0%
same,Mean Visual Injury (%)-21 Days After Application ORYSA ‘Wells’,"ORYSA (Oryza sativa ‘Wells’, rice), 8.75 g ae/ha",0%
same,Mean Visual Injury (%)-21 Days After Application ORYSA ‘Wells’,"ORYSA (Oryza sativa ‘Wells’, rice), 17.5 g ae/ha",0%
same,Mean Visual Injury (%)-21 Days After Application ORYSA ‘Wells’,"ORYSA (Oryza sativa ‘Wells’, rice), 35 g ae/ha",10%
same,Mean Visual Injury (%)-21 Days After Application ORYSA ‘Wells’,"ORYSA (Oryza sativa ‘Wells’, rice), 70 g ae/ha",23%
same,GR50 ORYSA ‘Wells’,"ORYSA (Oryza sativa ‘Wells’, rice), dose to kill or control 50 percent",>70 g ae/ha
same,GR90 ORYSA ‘Wells’,"ORYSA (Oryza sativa ‘Wells’, rice), dose to kill or control 90 percent",>70 g ae/ha
same,Mean Visual Injury (%)-21 Days After Application SCPJU,"SCPJU (Scirpus juncoides, Japanese bulrush), 4.38 g ae/ha",72%
same,Mean Visual Injury (%)-21 Days After Application SCPJU,"SCPJU (Scirpus juncoides, Japanese bulrush), 8.75 g ae/ha",100%
same,Mean Visual Injury (%)-21 Days After Application SCPJU,"SCPJU (Scirpus juncoides, Japanese bulrush), 17.5 g ae/ha",100%
same,Mean Visual Injury (%)-21 Days After Application SCPJU,"SCPJU (Scirpus juncoides, Japanese bulrush), 35 g ae/ha",100%
same,Mean Visual Injury (%)-21 Days After Application SCPJU,"SCPJU (Scirpus juncoides, Japanese bulrush), 70 g ae/ha",100%
same,GR50 SCPJU,"SCPJU (Scirpus juncoides, Japanese bulrush), dose to kill or control 50 percent",<4.38 g ae/ha
same,GR90 SCPJU,"SCPJU (Scirpus juncoides, Japanese bulrush), dose to kill or control 90 percent",6.9 g ae/ha
same,Mean Visual Injury (%)-21 Days After Application SEBEX,"SEBEX (Sesbania exaltata, hemp sesbania), 4.38 g ae/ha",100%
same,Mean Visual Injury (%)-21 Days After Application SEBEX,"SEBEX (Sesbania exaltata, hemp sesbania), 8.75 g ae/ha",100%
same,Mean Visual Injury (%)-21 Days After Application SEBEX,"SEBEX (Sesbania exaltata, hemp sesbania), 17.5 g ae/ha",100%
same,Mean Visual Injury (%)-21 Days After Application SEBEX,"SEBEX (Sesbania exaltata, hemp sesbania), 35 g ae/ha",100%
same,Mean Visual Injury (%)-21 Days After Application SEBEX,"SEBEX (Sesbania exaltata, hemp sesbania), 70 g ae/ha",100%
same,GR50 SEBEX,"SEBEX (Sesbania exaltata, hemp sesbania), dose to kill or control 50 percent",<4.38 g ae/ha
same,GR90 SEBEX,"SEBEX (Sesbania exaltata, hemp sesbania), dose to kill or control 90 percent",<4.38 g ae/ha
